ChEMBL document CHEMBL1201862, “PubChem BioAssay data set” (2004)
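Method: 48-hour compound exposure of cells in 96-well plates, five concentrations, linear interpolation of endpoints. GI50: concentration for 50% inhibition of growth.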 Active and inactive are the calls of the source. Cut-off read from the data, not from the text of the source: active = GI50 up to about 1.1 µM and inactive = higher.

Columns and labels:
Assay in all cases: inhibition of tumour cell growth, NCI panel, 48 h
HCT-116 = tested on: HCT-116
SK-MEL-2 = tested on: SK-MEL-2
NCI-H226 = tested on: NCI-H226
UACC-257 = tested on: UACC-257
CAKI-1 = tested on: CAKI-1
K562 = tested on: K562
RXF 393 = tested on: RXF 393
A498 = tested on: A498
SR = tested on: SR
SN12C = tested on: SN12C
EKVX = tested on: EKVX
T47D = tested on: T47D
MCF7 = tested on: MCF7
COLO 205 = tested on: COLO 205
NCI-H23 = tested on: NCI-H23
Malme-3M = tested on: Malme-3M
OVCAR-5 = tested on: OVCAR-5
CCRF-CEM = tested on: CCRF-CEM
OVCAR-4 = tested on: OVCAR-4
M14 = tested on: M14
UACC-62 = tested on: UACC-62
HCT-15 = tested on: HCT-15
SK-MEL-5 = tested on: SK-MEL-5
SK-OV-3 = tested on: SK-OV-3
ACHN = tested on: ACHN
HL-60 = tested on: HL-60
DU-145 = tested on: DU-145
MDA-MB-435 = tested on: MDA-MB-435
A549 = tested on: A549
NCI/ADR-RES = tested on: NCI/ADR-RES
NCI-H522 = tested on: NCI-H522
HOP-92 = tested on: HOP-92
KM12 = tested on: KM12
SNB-75 = tested on: SNB-75
SF-268 = tested on: SF-268
SF-295 = tested on: SF-295
SW-620 = tested on: SW-620
OVCAR-3 = tested on: OVCAR-3
PC-3 = tested on: PC-3
TK-10 = tested on: TK-10
SF-539 = tested on: SF-539
NCI-H460 = tested on: NCI-H460
IGROV-1 = tested on: IGROV-1
HCC 2998 = tested on: HCC 2998
LOX IMVI = tested on: LOX IMVI
MOLT-4 = tested on: MOLT-4
MDA-N = tested on: MDA-N
HOP-62 = tested on: HOP-62
HT-29 = tested on: HT-29
OVCAR-8 = tested on: OVCAR-8
RPMI-8226 = tested on: RPMI-8226
U-251 = tested on: U-251
SK-MEL-28 = tested on: SK-MEL-28
BT-549 = tested on: BT-549
UO-31 = tested on: UO-31
MDA-MB-231 = tested on: MDA-MB-231
786-0 = tested on: 786-0
Hs-578T = tested on: Hs-578T
SNB-19 = tested on: SNB-19

Measured: GI50

COc1ccc2[nH]c3c(C)c4ccnc(NCCCN(C)CCCNc5ccc6ncn7c8ccccc8c(=O)c5c67)c4c(C)c3c2c1
0.21 µM: HCT-15
active: HCT-116 0.0767 µM | NCI-H226 0.082 µM | UACC-257 0.723 µM | CAKI-1 0.242 µM | K562 0.0632 µM | RXF 393 0.256 µM | A498 1.11 µM | SR 0.0197 µM | SN12C 0.0621 µM | EKVX 0.94 µM | T47D 0.979 µM | MCF7 0.142 µM | COLO 205 0.272 µM | NCI-H23 0.412 µM | Malme-3M 1.07 µM | CCRF-CEM 0.0394 µM | OVCAR-4 0.106 µM | M14 0.998 µM | SK-MEL-5 0.573 µM | ACHN 0.0598 µM | HL-60 0.08 µM | DU-145 0.796 µM | MDA-MB-435 0.713 µM | A549 0.106 µM | NCI/ADR-RES 0.664 µM | NCI-H522 0.0524 µM | KM12 0.478 µM | SF-268 0.352 µM | SF-295 0.34 µM | SW-620 0.0418 µM | PC-3 0.752 µM | TK-10 0.22 µM | SF-539 0.132 µM | NCI-H460 0.0782 µM | IGROV-1 0.158 µM | HCC 2998 0.0578 µM | LOX IMVI 0.136 µM | MOLT-4 0.0043 µM | MDA-N 0.411 µM | HOP-62 0.275 µM | HT-29 0.0141 µM | OVCAR-8 0.348 µM | RPMI-8226 0.13 µM | U-251 0.134 µM | SK-MEL-28 0.671 µM | BT-549 1.06 µM | UO-31 0.361 µM | MDA-MB-231 0.322 µM | 786-0 0.0632 µM | SNB-19 0.752 µM
inactive: SK-MEL-2 3.24 µM | OVCAR-5 1.3 µM | UACC-62 1.71 µM | SK-OV-3 2.29 µM | HOP-92 1.68 µM | SNB-75 1.71 µM | OVCAR-3 1.87 µM | Hs-578T 3.15 µM

CCOC(=O)/C=C(/C(=O)OCC)n1ccc(=O)n(CC(=O)OCC)c1=O
active: HCT-116 1.01 µM | CAKI-1 0.146 µM | K562 0.348 µM | SN12C 1.1 µM | T47D 0.57 µM | MCF7 0.471 µM | COLO 205 0.284 µM | Malme-3M 0.668 µM | CCRF-CEM 0.169 µM | ACHN 0.57 µM | HL-60 0.143 µM | NCI-H522 0.196 µM | HOP-92 0.251 µM | SW-620 0.265 µM | OVCAR-3 1.1 µM | LOX IMVI 0.869 µM | MOLT-4 0.243 µM | 786-0 0.412 µM
0.463 µM: HCT-15
inactive: SK-MEL-2 4.65 µM | NCI-H226 2.22 µM | UACC-257 2.44 µM | RXF 393 1.15 µM | A498 14.8 µM | SR 1.35 µM | EKVX 1.89 µM | NCI-H23 1.78 µM | OVCAR-5 1.67 µM | OVCAR-4 1.84 µM | M14 1.37 µM | UACC-62 1.64 µM | SK-MEL-5 2.36 µM | SK-OV-3 14.4 µM | DU-145 5.01 µM | MDA-MB-435 1.64 µM | A549 6.17 µM | NCI/ADR-RES 2.63 µM | KM12 2.57 µM | SNB-75 2.48 µM | SF-268 3.11 µM | SF-295 14 µM | PC-3 1.67 µM | TK-10 1.23 µM | SF-539 2.96 µM | NCI-H460 3.89 µM | IGROV-1 1.61 µM | HCC 2998 2.36 µM | MDA-N 2.44 µM | HOP-62 17.2 µM | HT-29 1.58 µM | OVCAR-8 2.39 µM | U-251 2.56 µM | SK-MEL-28 1.68 µM | BT-549 2.08 µM | UO-31 1.63 µM | MDA-MB-231 2.04 µM | Hs-578T 4.9 µM | SNB-19 10.8 µM

[O-][S+]1SC(=S)C2C=CC=NC21 (centres undefined)
17.3 µM: HCT-15
inactive: HCT-116 13.7 µM | SK-MEL-2 19.4 µM | NCI-H226 22.2 µM | UACC-257 15.4 µM | CAKI-1 > 100 µM | K562 20.9 µM | RXF 393 18.3 µM | A498 27.6 µM | SR 11.5 µM | SN12C 14.8 µM | EKVX 13.2 µM | T47D 18.9 µM | MCF7 17.5 µM | COLO 205 21.3 µM | NCI-H23 18.6 µM | Malme-3M 17.3 µM | OVCAR-5 15.3 µM | CCRF-CEM > 100 µM | OVCAR-4 > 100 µM | M14 15.3 µM | UACC-62 21.3 µM | SK-MEL-5 18.8 µM | SK-OV-3 32.6 µM | ACHN 18.1 µM | HL-60 > 100 µM | DU-145 16.6 µM | MDA-MB-435 > 100 µM | A549 19.2 µM | NCI/ADR-RES 20.9 µM | NCI-H522 14.3 µM | HOP-92 15.8 µM | KM12 87.7 µM | SNB-75 18.7 µM | SF-268 19.5 µM | SF-295 22.4 µM | SW-620 > 100 µM | OVCAR-3 20.6 µM | PC-3 16.8 µM | TK-10 18.1 µM | SF-539 16 µM | NCI-H460 17.4 µM | IGROV-1 20.1 µM | HCC 2998 15.5 µM | LOX IMVI 14.9 µM | MOLT-4 16.4 µM | MDA-N 14.7 µM | HT-29 16.1 µM | OVCAR-8 25 µM | RPMI-8226 32.1 µM | U-251 18 µM | SK-MEL-28 > 100 µM | BT-549 19 µM | UO-31 14.7 µM | MDA-MB-231 18.7 µM | 786-0 14.5 µM | Hs-578T 20.7 µM | SNB-19 26.1 µM

Fc1cccc(CSc2ncnc3c2ncn3C2CCCS2)c1 (centres undefined)
inactive: HCT-116 8.34 µM | SK-MEL-2 19.6 µM | NCI-H226 29.2 µM | UACC-257 15.6 µM | CAKI-1 37.1 µM | K562 8.77 µM | RXF 393 17.3 µM | A498 17.3 µM | SR 3.94 µM | SN12C 25.8 µM | EKVX 18.7 µM | T47D 29.3 µM | MCF7 22 µM | COLO 205 10.2 µM | NCI-H23 23.9 µM | Malme-3M 21 µM | OVCAR-5 37.3 µM | CCRF-CEM 8.49 µM | OVCAR-4 23.4 µM | M14 18.1 µM | UACC-62 13.1 µM | SK-MEL-5 10.5 µM | SK-OV-3 38.5 µM | ACHN 16.9 µM | HL-60 8.83 µM | DU-145 17.4 µM | MDA-MB-435 18.5 µM | A549 20.1 µM | NCI/ADR-RES 25 µM | NCI-H522 15.1 µM | HOP-92 24.2 µM | KM12 15.4 µM | SNB-75 17.6 µM | SF-268 14.8 µM | SF-295 18.2 µM | SW-620 29.9 µM | OVCAR-3 17.4 µM | PC-3 14.5 µM | TK-10 30.6 µM | SF-539 11.7 µM | NCI-H460 4.79 µM | IGROV-1 22.4 µM | HCC 2998 21.9 µM | LOX IMVI 13.2 µM | MOLT-4 3.77 µM | MDA-N 20.8 µM | HOP-62 17.6 µM | HT-29 15.5 µM | OVCAR-8 20.8 µM | RPMI-8226 7.08 µM | U-251 10.5 µM | SK-MEL-28 18.9 µM | BT-549 21.7 µM | UO-31 12.1 µM | MDA-MB-231 23 µM | 786-0 20.7 µM | Hs-578T 26.9 µM | SNB-19 36.2 µM
8.51 µM: HCT-15
